# Assay results reported in PubChem BioAssay (NCI).
#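 Cells were grown in 96-well plates and exposed to each compound for 48 hours at five concentrations; endpoints were interpolated linearly between bracketing concentrations, or set to the highest concentration if not reached. GI50 marks 50% less growth. TGI marks complete inhibition of growth.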
# Legend:
# Experiment in all cases: NCI-60 cell line screen, 48 h
# MDA-N = test system: MDA-N
# T-47D breast = test system: T-47D breast
# RXF-631 renal = test system: RXF-631 renal
# DLD-1 colon = test system: DLD-1 colon
# SNB-78 CNS = test system: SNB-78 CNS
# XF 498 CNS = test system: XF 498 CNS
# LXFL 529 NSCLC = test system: LXFL 529 NSCLC
# HOP-18 NSCLC = test system: HOP-18 NSCLC
# DMS 273 small cell lung = test system: DMS 273 small cell lung
Structure (SMILES),TGI (T-47D breast),GI50 (T-47D breast),TGI (DLD-1 colon),TGI (SNB-78 CNS),TGI (LXFL 529 NSCLC),TGI (DMS 273 small cell lung),also measured
Cn1c2ccccc2c(=O)c2ccc(Cl)cc21,> 10 µM,–,–,–,–,–,TGI (MDA-N): > 10 µM
Cc1ccc2[nH]c(O)c(N=Nc3ccc(S(N)(=O)=O)cc3)c2c1,> 25 µM,15.3 µM,–,–,–,–,–
O=c1c2cc(Br)cc(Br)c2nc(CCCl)n1CCO,–,–,> 100 µM,> 100 µM,> 100 µM,–,TGI (RXF-631 renal): > 100 µM; TGI (XF 498 CNS): > 100 µM
CC1=C(C(=O)Nc2ccc(F)c(Cl)c2)C(c2cccc(O)c2)NC(=O)N1 (centres undefined),> 100 µM,> 100 µM,–,–,–,–,–
C#Cc1c(I)n(C2OC(CO[Si](C)(C)C(C)(C)C)C3OC(C)(C)OC32)c(=O)[nH]c1=O (centres undefined),28 µM,5.42 µM,–,–,–,–,–
CC(=O)N[C@H]1CSSC[C@@H](C(N)=O)NC(=O)[C@H](C(C)C)NC(=O)[C@H](C)NC(=O)[C@H](Cc2cnc[nH]2)NC1=O,> 100 µM,> 100 µM,–,–,–,–,–
O=C(Nc1c(Cl)cc([N+](=O)[O-])cc1Cl)C(=O)C(C1OC(=O)c2ccccc21)[N+](=O)[O-] (centres undefined),–,–,> 100 µM,> 100 µM,> 100 µM,–,TGI (RXF-631 renal): > 100 µM; TGI (XF 498 CNS): > 100 µM
COc1ccc(OC)c2c(C(=O)O)c(Cc3ccccc3)ccc12,–,–,> 100 µM,–,> 100 µM,> 100 µM,TGI (HOP-18 NSCLC): > 100 µM; TGI (XF 498 CNS): > 100 µM
O=C(/C=C\c1ccc(NCc2ccc(C(=O)O)cc2)cc1)CCl,12.5 µM,2.6 µM,–,–,–,–,–
COc1ccc(CC2NCCc3cc(OC)c(OC)cc32)cc1Br (centres undefined),63.1 µM,–,> 100 µM,> 100 µM,> 100 µM,57.5 µM,TGI (HOP-18 NSCLC): > 100 µM; TGI (MDA-N): > 100 µM; TGI (XF 498 CNS): 47 µM
Clc1ccc2c(c1)-c1c3c(nn1-c1ccccc1)-c1ccccc1SC3O2 (centres undefined),–,–,–,> 100 µM,> 100 µM,> 100 µM,TGI (HOP-18 NSCLC): > 100 µM; TGI (XF 498 CNS): > 100 µM
CC(C)(C[C@H]1CN(S(=O)(=O)c2cccc(C(F)(F)F)c2)c2cc(-c3cc(F)cc(OC(F)F)c3)ccc2O1)C(=O)O,29.2 µM,5.19 µM,–,–,–,–,–
COc1cc(NC(C)CCCN)c2nccc(C)c2c1 (centres undefined),–,–,–,–,–,–,TGI (MDA-N): 33.7 µM
O=C1NC(=O)C(CC2CCCCCCCCCCC2=O)C(=O)N1 (centres undefined),–,–,–,–,–,–,TGI (MDA-N): > 100 µM
COc1cc(C(=O)c2cc(C)c3[nH]c4ccc(C)cc4c3c2C)cc(OC)c1OC,> 100 µM,0.287 µM,–,–,–,–,–
CCSc1nc(SCC)c2cn[nH]c2n1,> 100 µM,34.2 µM,–,–,–,–,–
CCOC(=O)c1ccc(C)c(N=NN(C)C)c1,–,–,> 100 µM,–,–,> 100 µM,TGI (HOP-18 NSCLC): > 100 µM; TGI (XF 498 CNS): > 100 µM
O=C1CCC(O)=C1N=Nc1ccccc1,–,–,> 100 µM,> 100 µM,–,> 100 µM,TGI (HOP-18 NSCLC): > 100 µM; TGI (RXF-631 renal): > 100 µM
O=C(c1ccccc1)C1OC12C(=O)Nc1ccccc12 (centres undefined),–,–,> 100 µM,> 100 µM,30.3 µM,> 100 µM,TGI (RXF-631 renal): > 100 µM; TGI (XF 498 CNS): > 100 µM
CCOc1cc(C(C)(C)C)ccc1C1=N[C@@](C)(c2ccc(Cl)cc2)[C@@](C)(c2ccc(Cl)cc2)N1C(=O)N1CCN(CCCS(C)(=O)=O)CC1,61.4 µM,9.21 µM,–,–,–,–,–

Structure (SMILES),TGI (T-47D breast),GI50 (T-47D breast),TGI (DLD-1 colon),TGI (SNB-78 CNS),TGI (LXFL 529 NSCLC),TGI (DMS 273 small cell lung),also measured
c1ccc(C2Nc3ccccc3C3OCCCC23)cc1 (centres undefined),–,–,> 100 µM,> 100 µM,> 100 µM,97.1 µM,TGI (RXF-631 renal): > 100 µM; TGI (XF 498 CNS): > 100 µM
CC/C=C\C[C@H]1C/C=C2/C(=O)C=C[C@@H]2C/C=C\CCCC(=O)O1,9.33 µM,1.21 µM,–,–,–,–,–
CC1(C)[C@@H](OC(N)=O)[C@H]2O[C@H]2[C@]2(C=O)[C@H]3CC[C@]4(C)[C@@H](c5ccc(=O)oc5)[C@@H](Cl)C[C@]4(O)C3=CC[C@@H]12,0.0181 µM,0.00656 µM,–,–,–,–,–
O=C1Nc2ccc(F)cc2/C1=C/c1ccc[nH]1,> 14.2 µM,1.03 µM,–,–,–,–,–
C[C@]12CC[C@@H]3c4cc(OCC(F)(F)F)c(O)cc4/C(=N/O)C[C@H]3[C@@H]1CC[C@@H]2O,–,–,–,–,–,–,TGI (MDA-N): 1.06 µM
CSC(C1c2ccccc2N(c2ccc(C)cc2)c2[nH]c(=O)n(C)c(=O)c21)S(=O)(=O)c1ccc(C)cc1 (centres undefined),–,–,> 100 µM,> 100 µM,> 100 µM,> 100 µM,TGI (XF 498 CNS): > 100 µM
CCN(CC)c1ccc(N=Nc2ccc(-c3nc4ccc[n+](C)c4s3)cc2)cc1,–,–,–,31.6 µM,17.9 µM,13.5 µM,TGI (HOP-18 NSCLC): 31.3 µM
C/C(CC(=O)NCCc1ccccc1)=N\NC(=O)C[n+]1ccccc1,–,–,> 100 µM,> 100 µM,> 100 µM,> 100 µM,TGI (RXF-631 renal): > 100 µM; TGI (XF 498 CNS): > 100 µM
CCn1c(SCc2ccc(C)cc2)nnc1-c1nn(-c2ccc(Cl)cc2Cl)c(-c2ccc(Cl)cc2)c1C,10.1 µM,0.428 µM,–,–,–,–,–
CN(C)c1cc[c]([Sn]([c]2ccc(N(C)C)cc2)([c]2ccc(N(C)C)cc2)[c]2ccc(N(C)C)cc2)cc1,–,–,–,11.5 µM,12.9 µM,16.4 µM,GI50 (HOP-18 NSCLC): 8.77 µM; TGI (HOP-18 NSCLC): 32.9 µM; GI50 (SNB-78 CNS): 3.82 µM; GI50 (DMS 273 small cell lung): 4.76 µM; GI50 (LXFL 529 NSCLC): 3.09 µM
C1C[OH+]CC[OH+]CC[OH+]CC[OH+]CC[OH+]1.[Cl-].[V],–,–,> 100 µM,–,> 100 µM,> 100 µM,GI50 (HOP-18 NSCLC): 60.6 µM; TGI (HOP-18 NSCLC): > 100 µM; GI50 (DLD-1 colon): > 100 µM; GI50 (DMS 273 small cell lung): 53 µM; GI50 (LXFL 529 NSCLC): > 100 µM
CC(CO)(CO)NCCCCn1ccc2c1C(=O)c1c(c(O)c3ccccc3c1O)C2=O,65.8 µM,21.1 µM,–,–,–,–,–
CCn1c(-c2ccc(OC(C)=O)cc2)c(C)c2cc(OC(C)=O)ccc21,60.5 µM,–,–,–,–,–,TGI (MDA-N): 77.9 µM
CCCCCCCCCCCCCCCCCCOc1ccccc1CC(=O)OCC[N+]1(C)CCCC1,17 µM,3 µM,–,–,–,–,–
O=C(CCC1OCCO1)Nc1cc(NCc2ccccc2)ccc1OCc1ccccc1,> 100 µM,–,–,–,–,–,–
COc1c(CCl)cc(-c2cc(=O)c3ccccc3s2)cc1CCl,4.03 µM,–,–,–,–,–,TGI (MDA-N): > 100 µM
C=CCc1ccc(Oc2cc(CC=C)c3c(c2O)O[C@@H](CO)[C@H]3c2ccc(O)c(-c3cc(CC=C)ccc3O)c2)cc1,–,–,> 100 µM,> 100 µM,90.7 µM,> 100 µM,TGI (HOP-18 NSCLC): > 100 µM
COc1ccc(CCN2COc3c([C@@H](C)CCC=C(C)C)ccc(C)c3C2)cc1OC,3.8 µM,1.78 µM,–,–,–,–,–
CN(C)C(=O)[C@H](O)[C@H](Cc1ccccc1)NC(=O)c1cc2cc(Cl)ccc2[nH]1,> 96.7 µM,25.1 µM,–,–,–,–,–
